Data as given in the SangsterLogP compilation.

Assay: method code SF-AS, from PMID: 754638
Details: not given

Row | SMILES | logP
1 | COc1cc(S(=O)(=O)CCO)cc(OC)c1OC | 0.18
2 | COc1cc(S(=O)(=O)CCC(C)C)cc(OC)c1OC | 2.12
3 | C=CCS(=O)(=O)c1cc(OC)c(OC)c(OC)c1 | 1.34
4 | CCCS(=O)(=O)c1cc(OC)c(OC)c(OC)c1 | 1.56
5 | CCS(=O)(=O)c1cc(OC)c(OC)c(OC)c1 | 1.05
6 | COc1cc(S(=O)(=O)CCN2CCOCC2)cc(OC)c1OC | 1.29
7 | COc1cc(S(=O)(=O)CC(O)c2ccccc2)cc(OC)c1OC (centres undefined) | 1.65

Same assay, conditions: pH 7.3

Row | SMILES | logD
8 | COc1cc(S(=O)(=O)CCN2CCCCC2)cc(OC)c1OC | 1.6
9 | CCCCN(C)CCS(=O)(=O)c1cc(OC)c(OC)c(OC)c1 | 2.05
